What was measured:
Assay in all cases: Growth-promoting (prebiotic) effect, OD600 after 24 hr anaerobic culture in GAM bouillon
Assay type in all cases: cell-based
[1] = test system: Bifidobacterium longum subsp. Longum 7054 strain; details: B. longum subsp. Longum 7054, 0.5 (w/v) % oligosaccharide, 37° C.
Experimental: (§1) The microorganisms were purchased from independent administrative agency RIKEN Tsukuba Laboratory BioResource Center (3-1-1 Koyadai, Tsukuba, Ibaraki 305-0074, Japan). As Bifidobacterium longum subsp. longum NCC2705, the strain preserved under GenBank accession number NC004307 was used.
(§2) Glycerol stock of each strain shown in Table 1 was plated in GAM bouillon (manufactured by Nissui Pharmaceutical Co., Ltd.) agar medium, and cultured using a gas pack (“Anaeropack”, manufactured by Mitsubishi Gas Chemical Company, Inc.), under anaerobic conditions at 37° C. for 2 days to renature the test strain. Each strain was inoculated in 5 mL GAM bouillon liquid medium, and precultured in the same manner as above under an anaerobic condition at 37° C. for 18 hr.
(§3) The turbidity (OD600) of each culture medium was measured at wavelength 600 nm on completion of the preculture. The preculture medium was seeded in 1 mL of main test liquid medium such that the OD600 value at the time of start of the culture was 0.010, the cells were cultured under anaerobic conditions at 37° C. for 24 hr in the same manner as above, and OD600 of the culture medium was measured on completion of the culture. The liquid medium for the test was prepared by adding LNT or LNnT to the GAM bouillon liquid medium at a final concentration of 0.5 (w/v) %. In addition, GAM bouillon liquid medium free of both oligosaccharides LNT, LNnT was used as a control. To evaluate the growth-promoting effect (prebiotic effect) of LNT and LNnT, the relative value of the oligosaccharide (LNT or LNnT) addition plot, when the measurement value OD600 of the oligosaccharide non-addition plot (control) was 1, is shown in FIG. 2.

[2] = test system: Bifidobacterium longum subsp. Longum 1217 strain; details: B. longum subsp. Longum 1217, 0.5 (w/v) % oligosaccharide, 37° C.
Experimental: as §1, §2, §3

[3] = test system: Bifidobacterium longum subsp. Longum NCC2705 strain; details: B. longum subsp. Longum NCC2705, 0.5 (w/v) % oligosaccharide, 37° C.
Experimental: as §1, §2, §3

Measured: prebiotic effect (OD600 of oligosaccharide addition test plot/OD600 of control plot)

4-O-[3-[2-(acetylamino)-2-deoxy-3-O-(β-D-galactopyranosyl)-β-D-glucopyranosyl]-β-D-galactopyranosyl]-D-glucose [LNT]
≥ 2 fold: all assays above

From US20150119360A1, “COMPOSITION FOR PROMOTING BIFIDOBACTERIA GROWTH” (Kyoto University, priority 2012, published 2015)
